# Test results from patent publication US8778973B2, “Alkene oxindole derivatives” (Hoffmann-La Roche Inc., priority 2009, dated 2014).
# pEC50: −log10 of the molar value.
# System: Recombinant human AMPK proteins (α1β1γ1, α2β1γ1, α1(1-335), α1(1-394) or α2(1-394))
# Assay: Scintillation Proximity Assay (SPA) of AMPK activation
# Type: biochemical
# Settings: activator concentration for 50% of maximal enzyme activity; 50 nM recombinant AMPK, 2 μM ATP, 30° C., 2 hr
# Method: Recombinant human AMPK α1β1γ1, α2β1γ1 or AMPK α subunit truncations α1(1-335), α1(1-394) and α2(1-394) were constructed, expressed and purified as described previously (Pang, T., Zhang, Z. S., Gu, M., Qiu, B. Y., Yu, L. F., Cao, P. R., Shao, W., Su, M. B., Li, J. Y., Nan, F. J., and Li, J. (2008)). Rat liver AMPK heterotrimer enzyme was obtained from Upstate (Billerica, Mass., U.S.A.).
# Scintillation Proximity Assay
# Before the Scintillation Proximity Assay (SPA) assay, 200 nM recombinant AMPK proteins (α1β1γ1, α2β1γ1, α1(1-335), α1(1-394) or α2(1-394)) were fully phosphorylated as described previously (Pang et al., 2008). SPA reactions were performed in 96-well plates at a final volume of 501 containing 20 mM Tris-HCl pH 7.5, 5 mM MgCl2, 1 mM DTT, 2 μM biotin-SAMS, 2 μM ATP, 0.2 μCi/well [γ-^33P]ATP, and various amount of activator. Reactions were initiated by the addition of 50 nM recombinant AMPK proteins to the reaction solutions and incubated at 30° C. for 2 hr. After that, reactions were terminated by the addition of 401 stop solution containing 80 μg streptavidin-coated SPA beads per well, 50 mM EDTA, 0.1% Triton X-100 in PBS, pH 7.5 and incubated for 1 hr. Finally, a 160 ul suspension solution containing 2.4 M CsCl, 50 mM EDTA, and 0.1% Triton X-100 in PBS (pH 7.5) was added to the reaction solution to suspend SPA beads completely. SPA signals were determined with a Wallac MicroBeta plate counter (PerkinElmer) 30 min later for calculation of the amount of product formed. The amount of products formed in 2 hr was plotted against activator concentrations to determine the effective concentration of the activator (EC50) required for 50% of maximal enzyme activity.
# Compounds as described above have EC50 values between 0.5 uM and 50 uM, preferred compounds have EC50 values between 0.5 uM and 10 uM, particularly preferred compounds have EC50 values between 0.5 uM and 1 uM.
row,pEC50,Structure (SMILES)
1,5.66,"CCOC(=O)c1cccc(N2C(=O)/C(=C(\C)c3ccccc3)c3ccccc32)c1 [Example 1, 3-[2-Oxo-3-(1-phenyl-ethylidene)-2,3-dihydro-indol-1-yl]-benzoic acid ethyl ester]"
2,5.83,"COC(=O)Cc1cccc(N2C(=O)/C(=C(\C)c3ccccc3)c3ccccc32)c1 [Example 2, (3-{2-Oxo-3-[1-phenyl-eth-(E)-ylidene]-2,3-dihydro-indol-1-yl}-phenyl)-acetic acid methyl ester]"
3,5.25,"COC(=O)c1cc(N2C(=O)/C(=C(\C)c3ccccc3)c3ccccc32)ccc1C [Example 3, 2-Methyl-5-{2-oxo-3-[1-phenyl-eth-(E)-ylidene]-2,3-dihydro-indol-1-yl}-benzoic acid methyl ester]"
4,5.28,"C/C(=C1\C(=O)N(CC(=O)O)c2ccccc21)c1ccccc1 [Example 4, [2-Oxo-3-(1-phenyl-ethylidene)-2,3-dihydro-indol-1-yl]-acetic acid]"
5,5.64,"COC(=O)c1cccc(CN2C(=O)/C(=C(\c3ccccc3)c3ccc(Cl)cc3)c3ccccc32)c1 [Example 5, 3-((3-((4-Chlorophenyl)(phenyl)meth-(E)-ylene)-2-oxoindolin-1-yl)methyl)benzoic acid methyl ester]"
6,5.82,"COC(=O)c1cccc(CN2C(=O)/C(=C(\c3ccccc3)c3ccc(Cl)cc3)c3cccc(F)c32)c1 [Example 6, 3-{3-[1-(4-Chloro-phenyl)-1-phenyl-meth-(E)-ylidene]-7-fluoro-2-oxo-2,3-dihydro-indol-1-ylmethyl}-benzoic acid methyl ester]"
7,5.81,"COC(=O)c1cccc(CN2C(=O)C(=C(c3ccccc3)c3ccccc3)c3ccccc32)c1 [Example 7, 3-(3-Benzhydrylidene-2-oxo-2,3-dihydro-indol-1-ylmethyl)-benzoic acid methyl ester]"
8,5.19,"COC(=O)c1cccc(CN2C(=O)/C(=C(\c3ccccc3)c3ccc(OC)cc3)c3ccccc32)c1 [Example 8, 3-{3-[1-(4-Methoxy-phenyl)-1-phenyl-meth-(E)-ylidene]-2-oxo-2,3-dihydro-indol-1-ylmethyl}-benzoic acid methyl ester]"
9,5.67,"COC(=O)c1cccc(CN2C(=O)/C(=C(\c3ccccc3)c3ccc(C)cc3)c3ccccc32)c1 [Example 9, 3-{2-Oxo-3-[1-phenyl-1-p-tolyl-meth-(E)-ylidene]-2,3-dihydro-indol-1-ylmethyl}-benzoic acid methyl ester]"
10,5.35,"COC(=O)c1cccc(CN2C(=O)/C(=C(/c3ccc(Cl)cc3)c3ccccc3OC)c3ccccc32)c1 [Example 10, 3-{3-[1-(4-Chloro-phenyl)-1-(2-methoxy-phenyl)-meth-(Z)-ylidene]-2-oxo-2,3-dihydro-indol-1-ylmethyl}-benzoic acid methyl ester]"
11,5.51,"COC(=O)c1cccc(CN2C(=O)/C(=C(\c3ccccc3)c3ccc(C#N)cc3)c3ccccc32)c1 [Example 11, 3-{3-[1-(4-Cyano-phenyl)-1-phenyl-meth-(E)-ylidene]-2-oxo-2,3-dihydro-indol-1-ylmethyl}-benzoic acid methyl ester]"
12,5.27,"COC(=O)c1cccc(CN2C(=O)/C(=C(\c3ccccc3)c3ccc(C(F)(F)F)cc3)c3ccccc32)c1 [Example 12, 3-{2-Oxo-3-[1-phenyl-1-(4-trifluoromethyl-phenyl)-meth-(E)-ylidene]-2,3-dihydro-indol-1-ylmethyl}-benzoic acid methyl ester]"
13,5.73,"COC(=O)c1cccc(CN2C(=O)/C(=C(\c3ccccc3)c3ccc(F)c(Cl)c3)c3ccccc32)c1 [Example 13, 3-{3-[1-(3-Chloro-4-fluoro-phenyl)-1-phenyl-meth-(E)-ylidene]-2-oxo-2,3-dihydro-indol-1-ylmethyl}-benzoic acid methyl ester]"
14,5.36,"COC(=O)c1cccc(CN2C(=O)/C(=C(\c3ccccc3)c3cc(OC)c(OC)c(OC)c3)c3ccccc32)c1 [Example 14, 3-{2-Oxo-3-[1-phenyl-1-(3,4,5-trimethoxy-phenyl)-meth-(E)-ylidene]-2,3-dihydro-indol-1-ylmethyl}-benzoic acid methyl ester]"
15,5.61,"COC(=O)c1cccc(CN2C(=O)/C(=C(\c3ccccc3)c3ccc(F)c(F)c3)c3ccccc32)c1 [Example 15, 3-{3-[1-(3,4-Difluoro-phenyl)-1-phenyl-meth-(E)-ylidene]-2-oxo-2,3-dihydro-indol-1-ylmethyl}-benzoic acid methyl ester]"
16,5.82,"COC(=O)c1cccc(CN2C(=O)/C(=C(\c3ccccc3)c3cccc(Cl)c3)c3ccccc32)c1 [Example 16, 3-{3-[1-(3-Chloro-phenyl)-1-phenyl-meth-(E)-ylidene]-2-oxo-2,3-dihydro-indol-1-ylmethyl}-benzoic acid methyl ester]"
17,5.63,"COC(=O)c1cccc(CN2C(=O)/C(=C(\c3ccccc3)c3ccccc3Cl)c3ccccc32)c1 [Example 17, 3-{3-[1-(2-Chloro-phenyl)-1-phenyl-meth-(E)-ylidene]-2-oxo-2,3-dihydro-indol-1-ylmethyl}-benzoic acid methyl ester]"
18,5.25,"COC(=O)c1cccc(CN2C(=O)/C(=C(\c3ccccc3)c3ccc(Cl)cc3)c3cc(F)ccc32)c1 [Example 18, 3-{3-[1-(4-Chloro-phenyl)-1-phenyl-meth-(E)-ylidene]-5-fluoro-2-oxo-2,3-dihydro-indol-1-ylmethyl}-benzoic acid methyl ester]"
19,6.00,"COC(=O)c1cccc(CN2C(=O)/C(=C(\c3ccccc3)c3cc(Cl)cc(Cl)c3)c3ccccc32)c1 [Example 19, 3-{3-[1-(3,5-Dichloro-phenyl)-1-phenyl-meth-(E)-ylidene]-2-oxo-2,3-dihydro-indol-1-ylmethyl}-benzoic acid methyl ester]"
20,5.75,"COC(=O)c1cccc(CN2C(=O)/C(=C(\c3ccccc3)c3cccc(Cl)c3Cl)c3ccccc32)c1 [Example 20, 3-{3-[1-(2,3-Dichloro-phenyl)-1-phenyl-meth-(E)-ylidene]-2-oxo-2,3-dihydro-indol-1-ylmethyl}-benzoic acid methyl ester]"
21,5.22,"COC(=O)c1ccc(CN2C(=O)/C(=C(\c3ccccc3)c3ccc(Cl)cc3)c3ccccc32)cc1 [Example 21, 4-{3-[1-(4-Chloro-phenyl)-1-phenyl-meth-(E)-ylidene]-2-oxo-2,3-dihydro-indol-1-ylmethyl}-benzoic acid methyl ester]"
22,5.38,"COC(=O)c1cccc(CN2C(=O)/C(=C(\c3ccccc3)c3ccc(Cl)cc3)c3cc(OC)ccc32)c1 [Example 22, 3-{3-[1-(4-Chloro-phenyl)-1-phenyl-meth-(E)-ylidene]-5-methoxy-2-oxo-2,3-dihydro-indol-1-ylmethyl}-benzoic acid methyl ester]"
23,5.16,"COC(=O)c1cccc(CN2C(=O)/C(=C(\c3ccccc3)c3ccccc3Br)c3ccccc32)c1 [Example 23, 3-{3-[1-(2-Bromo-phenyl)-1-phenyl-meth-(E)-ylidene]-2-oxo-2,3-dihydro-indol-1-ylmethyl}-benzoic acid methyl ester]"
24,5.32,"COC(=O)c1cccc(CN2C(=O)/C(=C(\c3ccccc3)c3cc(C(F)(F)F)ccc3Cl)c3ccccc32)c1 [Example 24, 3-{3-[1-(2-Chloro-5-trifluoromethyl-phenyl)-1-phenyl-meth-(E)-ylidene]-2-oxo-2,3-dihydro-indol-1-ylmethyl}-benzoic acid methyl ester]"
25,5.56,"COC(=O)c1cccc(CN2C(=O)/C(=C(\c3ccccc3)c3ccc(Cl)cc3)c3c(F)cccc32)c1 [Example 25, 3-{3-[1-(4-Chloro-phenyl)-1-phenyl-meth-(E)-ylidene]-4-fluoro-2-oxo-2,3-dihydro-indol-1-ylmethyl}-benzoic acid methyl ester]"
26,5.90,"COC(=O)c1cccc(CN2C(=O)/C(=C(\c3ccccc3)c3ccc(Cl)cc3)c3ccc(F)cc32)c1 [Example 26, 3-{3-[1-(4-Chloro-phenyl)-1-phenyl-meth-(E)-ylidene]-6-fluoro-2-oxo-2,3-dihydro-indol-1-ylmethyl}-benzoic acid methyl ester]"
27,5.56,"COC(=O)c1cccc(CN2C(=O)/C(=C(\c3ccccc3)c3cccc(Br)c3)c3ccccc32)c1 [Example 27, 3-{3-[1-(3-Bromo-phenyl)-1-phenyl-meth-(E)-ylidene]-2-oxo-2,3-dihydro-indol-1-ylmethyl}-benzoic acid methyl ester]"
28,6.10,"COC(=O)c1cccc(CN2C(=O)/C(=C(\c3ccccc3)c3ccccc3SC)c3ccccc32)c1 [Example 28, 3-{3-[1-(2-Methylsulfanyl-phenyl)-1-phenyl-meth-(E)-ylidene]-2-oxo-2,3-dihydro-indol-1-ylmethyl}-benzoic acid methyl ester]"
